Experimental data as given in US20170000749A1, “Methods for Treating Cognitive Disorders Using Inhibitors of Histone Deacetylase” (Forum Pharmaceuticals, Inc., priority 2008, published 2017).

molecular target: one or more of HDAC-1, HDAC-2, HDAC-3, HDAC-4, HDAC-5, HDAC-6, HDAC-7, HDAC-8, HDAC-9, HDAC-10 and HDAC-11; assay: Inhibition of Histone Deacetylase Enzymatic Activity (Boc-Lys(Ac)-AMC substrate, Fluor-de-Lys developer); type: biochemical; conditions: Table 8; read-out: HDAC Inhibition (IC50 μM) HDAC Enzyme
Method: The following protocol is used to assay the compounds of the disclosure.
The mixture is pre-incubated for 5 minutes at room temperature. The reaction is started by bringing the temperature to 37° C. and adding 16 μl substrate. Total reaction volume is 50 μl.
In the Tables 8, 9 and 10, A≦0.05 μM; 0.05 μM<B≦0.1 μM; 0.1 μM<C≦1 μM; and 1 μM<D≦10 μM.

IC50 [µM]	Molecule
0.1 to 1	CN1CCN(C2=Nc3cc(C(=O)NO)ccc3Oc3ccccc32)CC1
1 to 10	CN(O)C(=O)c1ccc(C2=Nc3ccccc3N(C3CC3)c3ccccc32)cc1 [(Z)-4-(5-cyclopropyl-5H-dibenzo[b,e][1,4]diazepin-11-yl)-N-hydroxy-N-methylbenzamide]
1 to 10	O=C(NO)c1ccc(C2=Nc3ccccc3N(CC3CC3)c3ncccc32)cc1 [(Z)-4-(11-(cyclopropylmethyl)-11H-benzo[b]pyrido[2,3-e][1,4]diazepin-5-yl)-N-hydroxybenzamide]
0.1 to 1	O=C(NO)c1ccc(C2=Nc3ccccc3Sc3ccccc32)cc1 [(Z)-4-(dibenzo[b,f][1,4]thiazepin-11-yl)-N-hydroxybenzamide]
0.1 to 1	O=C(NO)c1ccc(C2=Nc3ccccc3N(CCN3CCOCC3)c3ccccc32)cc1 [(Z)-N-hydroxy-4-(5-(2-morpholinoethyl)-5H-dibenzo[b,e][1,4]diazepin-11-yl)benzamide]
0.1 to 1	O=C(NO)c1ccc2c(c1)N=C(c1ccncc1)c1ccccc1O2 [(Z)-N-hydroxy-11-(pyridin-4-yl)dibenzo[b,f][1,4]oxazepine-8-carboxamide]

same assay, conditions: Table 10; read-out: HDAC Inhibition (IC50 μM) HDAC Enzyme

IC50 [µM]	Molecule
1 to 10	O=C(NO)c1ccc(OCCN2C(=O)c3ccccc3Oc3ccccc32)cc1Cl
0.05 to 0.1	O=C(NO)c1ccc(OCCN2C(=O)c3ccccc3Oc3ccccc32)cc1F
0.1 to 1	O=C(C=C1c2ccccc2C=Cc2ccccc21)NO
1 to 10	O=C(C=C1c2ccccc2CCc2ccccc21)NO
< 0.05	O=C(NO)c1cnc(NC2c3ccccc3CCc3ccccc32)nc1
0.1 to 1	O=C(NO)c1cn2c(n1)sc1ccccc12
0.1 to 1	O=C(NO)c1ccc(COC2c3ccccc3CCc3ccccc32)cc1
0.1 to 1	O=C(NO)c1cccc(COC2c3ccccc3CCc3ccccc32)c1
0.1 to 1	O=C(NO)c1cccc(CNC2c3ccccc3CCc3ccccc32)c1
0.1 to 1	O=C(NO)c1cnc(N2C[C@H]3C[C@@]3(c3cccc(C(F)(F)F)c3)C2)nc1
0.1 to 1	O=C(NO)c1cnc(N2C[C@H]3C[C@@]3(c3ccc(C(F)(F)F)cc3)C2)nc1
0.1 to 1	O=C(NO)c1cnc(N2C[C@H]3C[C@@]3(c3ccc(Cl)c(Cl)c3)C2)nc1 [2-((1R,5S)-1-(3,4-dichlorophenyl)-3-azabicyclo[3.1.0]hexan-3-yl)-N-hydroxypyrimidine-5-carboxamide]
0.1 to 1	O=C(NO)c1cnc(N2C[C@@H]3C[C@]3(c3ccc(Cl)c(Cl)c3)C2)nc1 [2-((1S,5R)-1-(3,4-dichlorophenyl)-3-azabicyclo[3.1.0]hexan-3-yl)-N-hydroxypyrimidine-5-carboxamide]
0.1 to 1	O=C(NO)c1cccc(CN2c3ccccc3Sc3ccccc32)c1 [3-((10H-phenothiazin-10-yl)methyl)-N-hydroxybenzamide]
1 to 10	O=C(NO)c1cccc(CN2c3ccccc3Oc3ccccc32)c1 [3-((10H-phenoxazin-10-yl)methyl)-N-hydroxybenzamide]
1 to 10	O=C(NO)c1cccc(CN(c2ccccc2)c2ccccc2)c1 [3-((diphenylamino)methyl)-N-hydroxybenzamide]

IC50 [µM]	Molecule
1 to 10	O=C(CCCN1C(=O)c2cccnc2N(C2CC2)c2ccccc21)NO [4-(11-cyclopropyl-5-oxo-5H-benzo[b]pyrido[2,3-e][1,4]diazepin-6(11H)-yl)-N-hydroxybutanamide]
0.1 to 1	O=C(NO)c1ccc(Cn2c3c(c4ccccc42)CCCCCC3)cc1 [4-((6,7,8,9,10,11-hexahydro-5H-cycloocta[b]indol-5-yl)methyl)-N-hydroxybenzamide]
0.1 to 1	O=C(NO)c1ccc(CNC2c3ccccc3COc3ccccc32)cc1 (stereo not drawn) [4-((6,11-dihydrodibenzo[b,e]oxepin-11-ylamino)methyl)-N-hydroxybenzamide]
< 0.05	O=C(NO)c1ccc(CN2c3ccccc3CCc3ccccc32)cc1 [4-((10,11-dihydro-5H-dibenzo[b,f]azepin-5-yl)methyl)-N-hydroxybenzamide]
< 0.05	O=C(NO)c1ccc(CNC(c2ccccc2)c2ccccc2)cc1 [4-((benzhydrylamino)methyl)-N-hydroxybenzamide]
0.1 to 1	O=C(NO)c1ccc(CN(c2ccccc2)c2ccccc2)cc1 [4-((diphenylamino)methyl)-N-hydroxybenzamide]
< 0.05	O=C(NO)c1ccc(CN2Cc3ccccc3Oc3ccccc32)cc1 [4-(dibenzo[b,f][1,4]oxazepin-10(11H)-ylmethyl)-N-hydroxybenzamide]
0.1 to 1	O=C(NO)c1cnc(N2CCC[C@H]2c2nc3ccccc3[nH]2)nc1 [(S)-2-(2-(1H-benzo[d]imidazol-2-yl)pyrrolidin-1-yl)-N-hydroxypyrimidine-5-carboxamide]
1 to 10	O=C(CN1c2ccccc2C=Cc2ccccc21)NO [(Z)-2-(5H-dibenzo[b,f]azepin-5-yl)-N-hydroxyacetamide]
0.1 to 1	O=C(NO)c1cccc(CN2c3ccccc3C=Cc3ccccc32)c1 [(Z)-3-((5H-dibenzo[b,f]azepin-5-yl)methyl)-N-hydroxybenzamide]
0.1 to 1	O=C(NO)c1cnc(N2C[C@H]3C[C@@]3(c3ccccc3)C2)nc1 [N-hydroxy-2-((1R,5S)-1-phenyl-3-azabicyclo[3.1.0]hexan-3-yl)pyrimidine-5-carboxamide]
1 to 10	CN1CCc2[nH]c3ccc(C(=O)NO)cc3c2C1 [N-hydroxy-2-methyl-2,3,4,5-tetrahydro-1H-pyrido[4,3-b]indole-8-carboxamide]
0.1 to 1	O=C(NO)c1ccc(Cn2c(-c3ccccc3)cc3ccccc32)cc1 [N-hydroxy-4-((2-phenyl-1H-indol-1-yl)methyl)benzamide]
1 to 10	O=C(NO)c1cc2c(cn1)[nH]c1ccccc12 [N-hydroxy-9H-pyrido[3,4-b]indole-3-carboxamide]
< 0.05	O=CN(O)CCCCCCN1C(=O)c2ccccc2Oc2ccccc21 [N-hydroxy-N-(6-(11-oxodibenzo[b,f][1,4]oxazepin-10(11H)-yl)hexyl)formamide]
0.1 to 1	(Z)-N-(5H-dibenzo[b,f]azepin-5-yl)methyl)benzyl)-N-hydroxyformamide

Molecule	IC50 [µM]
O=C(NO)c1cnc(NC(c2ccc(F)cc2)c2ccc(F)cc2)nc1 [2-(bis(4-fluorophenyl)methylamino)-N-hydroxypyrimidine-5-carboxamide]	< 0.05
O=C1CN=C(c2ccc(C(=O)NO)cc2)c2cc(Br)sc2N1 [(Z)-4-(7-bromo-2-oxo-2,3-dihydro-1H-thieno[2,3-e][1,4]diazepin-5-yl)-N-hydroxybenzamide]	0.1 to 1

test system: HDAC activity in primary mouse cortical cultures; assay: Whole-Cell Histone Deacetylase (HDAC) Inhibition Assay in Primary Mouse Cortical Cultures; type: cell-based; conditions: whole-cell (WC), mouse cortical neurons; Table 9; read-out: HDAC Inhibition (IC50 μM) WC mouse cortical neurons
Method: Primary neocortical cultures are established through the dissection of the neocortex from E17 embryos harvested from time-pregnant Balb/C mice. Following dissection, the neocortical tissue specimens undergo digestion by incubation at 37° C. for 10 minutes in dissection medium (1×HBSS/10 mM HEPES/1 mM Sodium Pyruvate) supplemented with (0.25%) Trypsin and (0.1%) DNase I. Digested tissue is washed and resuspended in plating medium (NeuroBasal/10% HS/0.5 mM L-Glutamine (Invitrogen Corporation)) for trituration. Additional plating medium is added, and the contents are passed over a 70 um cell-strainer. The cell-density is quantified using a hemacytometer, and dilutions are made to allow for the plating of 50000 cells/well/100 uL in 96-well PDL-coated plates. Plates are incubated for 4-5 hours in 37° C./5% CO2-incubator, after which time the entire volume is exchanged to feeding medium (NeuroBasal/2% B-27 Serum-free supplement/0.5 mM L-Glutamine/1% Penicillin-Streptomycin (Invitrogen Corporation)). The cultures undergo two 50% fresh feeding medium exchanges at 3 days in vitro (DIV3), and again at DIV7.
Compounds for testing are resuspended in dimethyl sulphoxide (DMSO), and further diluted in DMSO for a ten-point dose-response curve, with appropriate controls. Each master plate is assayed in triplicate. […] Three DIV9 culture plates are leveled to 50 uL/well, onto which each has overlaid 50 uL/well of the diluted daughter plate. The plates are returned to the 37° C./5% CO2-incubator for 16-18 hours.
The next step of the assay involves the exposure of a HDAC colorimetric substrate, comprising an acetylated lysine side chain, to the compound-treated neuronal cultures. Based on the ability of the compound to inhibit HDAC activity in the neuronal cultures, the substrate is deacetylated by HDACs, and subsequently sensitized. […] Compound-incubated culture plates are again leveled to 50 uL/well and 2 uL/well of 7.5 mM BOC-Lys (Ac)-AMC substrate is added and thoroughly mixed. Plates are returned to the 37° C./5% CO2-incubator for 1 hour.
The final addition to the culture plates entails treatment with a Fluor de Lys™-based developer (BIOMOL Research Laboratories, Inc.) to produce a fluorophore, which is analyzed using a spectrophotometer. The developer solution (1×Fluor de Lys™/1% NP-40/1 uM TSA in HDAC Buffer Solution) is prepared, and 50 uL/well is added to each of the wells of the culture plates. […] The plates are returned to the 37° C./5% CO2-incubator for 10-15 minutes, after which time, they are removed and set in the dark at room temperature for 5-10 minutes.
Primary neocortical cultures were established through the dissection of the neocortex from E17 embryos harvested from time-pregnant Balb/C mice. Following dissection, the neocortical tissue specimens underwent digestion by incubation at 37° C. for 10 minutes in dissection medium (1×HBSS/10 mM HEPES/1 mM Sodium Pyruvate) supplemented with (0.25%) Trypsin and (0.1%) DNase I. Digested tissue was washed and resuspended in plating medium (NeuroBasal/10% HS/0.5 mM L-Glutamine (Invitrogen Corporation)) for trituration. Additional plating medium was added, and the contents passed over a 70 um cell-strainer. The cell-density was quantified using a hemacytometer, and dilutions made to allow for the plating of 50000 cells/well/100 uL in 96-well PDL-coated plates. Plates were incubated for 4-5 hours in 37° C./5% CO2-incubator, after which time the entire volume was exchanged to feeding medium (NeuroBasal/2% B-27 Serum-free supplement/0.5 mM L-Glutamine/l % Penicillin-Streptomycin (Invitrogen Corporation)). The cultures underwent two 50% fresh feeding medium exchanges at 3 days in vitro (DIV3), and again at DIV7.
Compounds for testing were resuspended in dimethyl sulphoxide (DMSO), and further diluted in DMSO for a ten-point dose-response curve, with appropriate controls. Each master plate was assayed in triplicate.

IC50 [µM]	Molecule
1 to 5	O=C(NO)c1cnc(N2C[C@@H]3C[C@H]2CN3C(=O)C2CCCCC2)nc1 [2-((1S,4S)-5-(cyclohexanecarbonyl)-2,5-diazabicyclo[2.2.1]heptan-2-yl)-N-hydroxypyrimidine-5-carboxamide]

same assay, conditions: whole-cell (WC), mouse cortical neurons; Table 10; read-out: HDAC Inhibition (IC50 μM) WC mouse cortical neurons

IC50 [µM]	Molecule
< 1	O=C(NO)c1cnc(NC(c2ccccn2)c2ccccn2)nc1 [2-(dipyridin-2-ylmethylamino)-N-hydroxypyrimidine-5-carboxamide]
